# Target: T1, Kv1.3 potassium channel (Homo sapiens, UniProt P22001)
# T1 construct: expressed in transfected cells
# Assay: Kv1.3 potassium channel blocker activity, automated whole-cell patch clamp (Patchliner)
# Format: cell-based
# Conditions: CHO-K1 cells stably expressing Kv1.3; whole cell current inhibition; read-out: Kv1.3_IC50
# Procedure: The assay described below is used to evaluate the disclosed compound's activities as Kv1.3 potassium channel blockers.
# CHO-K1 cells stably expressing Kv1.3 were grown in DMEM containing 10% heat-inactivated FBS, 1 mM Sodium Pyruvate, 2 mM L-Glutamine and G418 (500 μg/ml).
# All compounds were dissolved in DMSO at 30 mM.
# The currents were evoked by applying 100 ms depolarizing pulses from −90 mV (holding potential) to +40 mV were applied with 0.1 Hz frequency. […] 10 second breaks were used between pulse trains (see Table A below).
# Data were sampled at 10 kHz without filtering. Passive leak currents were subtracted online using a P/4 procedure (HEKA Elektronik Dr. Schulze GmbH). […] Total compound incubation time before the next pulse train was not longer than 10 seconds. Peak current inhibition was observed during compound equilibration.
# T1 sequence (P22001 whole entry): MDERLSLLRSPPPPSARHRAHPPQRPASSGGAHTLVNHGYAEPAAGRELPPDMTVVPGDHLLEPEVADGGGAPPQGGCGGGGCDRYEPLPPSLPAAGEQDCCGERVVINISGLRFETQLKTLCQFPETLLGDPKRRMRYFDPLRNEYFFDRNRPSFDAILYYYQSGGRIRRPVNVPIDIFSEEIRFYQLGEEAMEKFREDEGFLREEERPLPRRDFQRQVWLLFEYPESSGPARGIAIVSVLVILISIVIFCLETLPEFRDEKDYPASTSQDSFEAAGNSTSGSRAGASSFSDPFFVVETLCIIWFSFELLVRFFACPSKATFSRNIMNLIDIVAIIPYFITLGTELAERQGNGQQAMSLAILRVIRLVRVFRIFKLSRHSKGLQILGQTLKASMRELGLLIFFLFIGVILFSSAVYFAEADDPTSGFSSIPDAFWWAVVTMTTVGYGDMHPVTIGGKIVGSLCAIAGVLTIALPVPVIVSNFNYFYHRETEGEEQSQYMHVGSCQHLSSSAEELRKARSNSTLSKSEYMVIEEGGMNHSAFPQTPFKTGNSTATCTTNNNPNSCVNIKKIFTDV
row,IC50,Compound
1,< 10 µM,"N[C@H](c1cc(Cl)c(Cl)cc1O)C1CCNCC1 (single isomer, unassigned) [Compound 15, Trifluoroacetic Acid]"
2,< 30 µM,"CC(=O)N[C@@H](c1cc(Cl)c(Cl)cc1O)C1CCNCC1 (single isomer, unassigned) [Compound 17]"
3,< 10 µM,"CN1CCC([C@@H](O)c2cc(Cl)c(Cl)cc2O)CC1 (single isomer, unassigned) [Compound 24]"
4,< 10 µM,"N[C@H](c1cc(Cl)c(Cl)cc1O)C1CCN(C(=O)[C@@H]2CCNC2)CC1 (single isomer, unassigned) [Compound 84]"
5,< 10 µM,"C[C@@H](N)C(=O)N1CCC([C@H](N)c2cc(Cl)c(Cl)cc2O)CC1 (single isomer, unassigned) [Compound 87]"
6,< 10 µM,"CN1CCC([C@H](O)c2cc(Cl)c(Cl)cc2O)CC1 (single isomer, unassigned) [Compound 319]"
7,< 10 µM,"O=C([C@@H]1CCNC1)N1CCC([C@H](O)c2c(O)ccc(Cl)c2Cl)CC1 (single isomer, unassigned) [Compound 321, Trifluoroacetic Acid]"
8,< 10 µM,"CN[C@H](c1cc(Cl)c(Cl)cc1O)C1CCN(C(=O)[C@H](O)CO)CC1 (single isomer, unassigned) [Compound 336]"
9,< 10 µM,"N[C@@H](c1cc(Cl)c(Cl)cc1O)[C@H]1CCC(=O)NC1 (single isomer, unassigned; diastereoisomer 1) [Compound 38, 5-(amino(4,5-dichloro-2-hydroxyphenyl)methyl)piperidin-2-one trifluoroacetic acid diastereoisomer 1]"
10,< 30 µM,"CC1(C)C[C@@H]([C@H](N)c2cc(Cl)c(Cl)cc2O)CCN1 (single isomer, unassigned; diastereoisomer 1) [Compound 72, 2-(amino(2,2-dimethylpiperidin-4-yl)methyl)-4,5-dichlorophenol Trifluoroacetic Acid Diastereoisomer 1]"
11,< 10 µM,"CC1(C)C[C@H]([C@H](N)c2cc(Cl)c(Cl)cc2O)CCN1 (single isomer, unassigned; diastereoisomer 2) [Compound 73, 2-(amino(2,2-dimethylpiperidin-4-yl)methyl)-4,5-dichlorophenol Trifluoroacetic Acid Diastereoisomer 2]"
12,< 10 µM,"C[C@@](O)(c1cc(Cl)c(Cl)cc1O)C1CCNCC1 (single isomer, unassigned; isomer 1) [Compound 25, 4,5-dichloro-2-(1-hydroxy-1-(piperidin-4-yl)ethyl)phenol isomer 1]"
13,< 0.5 µM,"O=S(=O)([C@H]1CCNC1)N1CCC([C@@H](O)c2cc(Cl)c(Cl)cc2O)CC1 (single isomer, unassigned; isomer 1) [Compound 124, 4,5-dichloro-2-(hydroxy(1-(pyrrolidin-3-ylsulfonyl)piperidin-4-yl)methyl)phenol Isomer 1]"
14,< 0.5 µM,"CN1C[C@H](C(=O)N2CCC([C@@H](N)c3cc(Cl)c(Cl)cc3O)CC2)OCC1=O (single isomer, unassigned; isomer 1) [Compound 274]"
15,< 10 µM,"N[C@H](c1cc(Cl)c(Cl)cc1O)[C@H]1CCN(C(=O)[C@H](O)CO)C1 (single isomer, unassigned; isomer 1) [Compound 308]"
16,< 10 µM,"O=C([C@H]1CCNC1)N1CCC[C@@H]([C@H](O)c2c(O)ccc(Cl)c2Cl)CC1 (single isomer, unassigned; isomer 1) [Compound 322]"
17,< 10 µM,"N[C@@H](c1cc(Cl)c(Cl)cc1O)[C@@H]1CCCN(C(=O)[C@H](O)CO)CC1 (single isomer, unassigned; isomer 1) [Compound 333]"
18,< 10 µM,"C[C@](O)(c1cc(Cl)c(Cl)cc1O)C1CCNCC1 (single isomer, unassigned; isomer 2) [Compound 26, 4,5-dichloro-2-(1-hydroxy-1-(piperidin-4-yl)ethyl)phenol Isomer 2]"
19,< 10 µM,"O=S(=O)([C@@H]1CCNC1)N1CCC([C@H](O)c2cc(Cl)c(Cl)cc2O)CC1 (single isomer, unassigned; isomer 2) [Compound 125, 4,5-dichloro-2-(hydroxy(1-(pyrrolidin-3-ylsulfonyl)piperidin-4-yl)methyl)phenol Isomer 2]"
20,< 10 µM,"O=C([C@H]1CCNC1)N1CCC[C@H]([C@H](O)c2c(O)ccc(Cl)c2Cl)CC1 (single isomer, unassigned; isomer 2) [Compound 129]"
21,< 10 µM,"CN1C[C@@H](C(=O)N2CCC([C@@H](N)c3cc(Cl)c(Cl)cc3O)CC2)OCC1=O (single isomer, unassigned; isomer 2) [Compound 278]"
22,< 10 µM,"N[C@@H](c1cc(Cl)c(Cl)cc1O)[C@H]1CCN(C(=O)[C@H](O)CO)C1 (single isomer, unassigned; isomer 2) [Compound 312]"

row,IC50,Compound
1,< 10 µM,"N[C@@H](c1cc(Cl)c(Cl)cc1O)[C@H]1CCCN(C(=O)[C@H](O)CO)CC1 (single isomer, unassigned; isomer 2) [Compound 334]"
2,< 10 µM,"O=C([C@H]1CCNC1)N1CCC[C@@H]([C@@H](O)c2c(O)ccc(Cl)c2Cl)CC1 (single isomer, unassigned; isomer 3) [Compound 323]"
3,< 0.5 µM,"O=S(=O)([C@@H]1CCNC1)N1CCC([C@@H](O)c2cc(Cl)c(Cl)cc2O)CC1 (single isomer, unassigned; isomer 4) [Compound 127, 4,5-dichloro-2-(hydroxy(1-(pyrrolidin-3-ylsulfonyl)piperidin-4-yl)methyl)phenol Isomer 4]"
4,< 10 µM,"O=C([C@H]1CCNC1)N1CCC[C@H]([C@@H](O)c2c(O)ccc(Cl)c2Cl)CC1 (single isomer, unassigned; isomer 4) [Compound 130]"
5,< 10 µM,"CC(O)(c1cc(Cl)c(Cl)cc1O)C1CCNCC1 (stereo not shown) [Compound 3, 4,5-dichloro-2-[1-hydroxy-1-(piperidin-4-yl)ethyl]phenol]"
6,< 10 µM,"OCC(c1cc(Cl)c(Cl)cc1O)C1CCNCC1 (stereo not shown) [Compound 5, 4,5-dichloro-2-[2-hydroxy-1-(piperidin-4-yl)ethyl]phenol]"
7,< 10 µM,"NCC(c1cc(Cl)c(Cl)cc1O)C1CCNCC1 (stereo not shown) [Compound 8, 2-[2-amino-1-(piperidin-4-yl)ethyl]-4,5-dichlorophenol]"
8,< 10 µM,"CS(=O)(=O)NC(c1cc(Cl)c(Cl)cc1O)C1CCNCC1 (stereo not shown) [Compound 12, N-((4,5-dichloro-2-hydroxyphenyl)(piperidin-4-yl)methyl)methanesulfonamide]"
9,< 10 µM,"Oc1cc(Cl)c(Cl)cc1C(C1CCNCC1)n1cccn1 (stereo not shown) [Compound 13, 4,5-dichloro-2-[piperidin-4-yl(1H-pyrazol-1-yl)methyl]phenol]"
10,< 10 µM,"CN1CCC(C(NC(=O)C(F)(F)F)c2cc(Cl)c(Cl)cc2O)CC1 (stereo not shown) [Compound 14, N-[(4,5-dichloro-2-hydroxyphenyl)(1-methylpiperidin-4-yl)methyl]-2,2,2-trifluoroacetamide]"
11,< 10 µM,"NC(=O)C(c1cc(Cl)c(Cl)cc1O)C1CCNCC1 (stereo not shown) [Compound 18, 2-(4,5-dichloro-2-hydroxyphenyl)-2-(piperidin-4-yl)acetamide]"
12,< 10 µM,"O=C(NC(c1cc(Cl)c(Cl)cc1O)C1CCNCC1)C(F)(F)F (stereo not shown) [Compound 22, N-((4,5-dichloro-2-hydroxyphenyl)(piperidin-4-yl)methyl)-2,2,2-trifluoroacetamide]"
13,< 10 µM,"CC(=O)N1CCC(C(c2cc(Cl)c(Cl)cc2O)N2CCCC2)CC1 (stereo not shown) [Compound 23, 1-(4-((4,5-dichloro-2-hydroxyphenyl)(pyrrolidin-1-yl)methyl)piperidin-1-yl)ethanone Trifluoroacetic Acid]"
14,< 30 µM,"CC(=O)N1CCC(C(Nc2ccccn2)c2cc(Cl)c(Cl)cc2O)CC1 (stereo not shown) [Compound 27, 1-[4-[(4,5-dichloro-2-hydroxyphenyl)[(pyridin-2-yl)amino]methyl]piperidin-1-yl]ethan-1-one Trifluoroacetic Acid]"
15,< 30 µM,"CC(=O)N1CCC(C(CN)c2cc(Cl)c(Cl)cc2O)CC1 (stereo not shown) [Compound 28, 1-[4-[2-amino-1-(4,5-dichloro-2-hydroxyphenyl)ethyl]piperidin-1-yl]ethan-1-one]"
16,< 10 µM,"O=C1CCCN1C(c1cc(Cl)c(Cl)cc1O)C1CCNCC1 (stereo not shown) [Compound 29, 1-((4,5-dichloro-2-hydroxyphenyl)(piperidin-4-yl)methyl)pyrrolidin-2-one Trifluoroacetic Acid]"
17,< 10 µM,"Cc1ccc(S(=O)(=O)N2CCC(C(N)c3cc(Cl)c(Cl)cc3O)CC2)cc1 (stereo not shown) [Compound 35, 2-(amino(1-tosylpiperidin-4-yl)methyl)-4,5-dichlorophenol]"
18,< 30 µM,"CC(N)(c1cc(Cl)c(Cl)cc1O)C1CCNCC1 (stereo not shown) [Compound 40, 2-[1-amino-1-(piperidin-4-yl)ethyl]-4,5-dichlorophenol]"
19,< 10 µM,"NC(c1cc(Cl)c(Cl)cc1O)C1CCN(Cc2ccccc2)CC1 (stereo not shown) [Compound 41, 2-(amino(1-benzylpiperidin-4-yl)methyl)-4,5-dichlorophenol Trifluoroacetic Acid]"
20,< 10 µM,"CN(C)C(=O)CN1CCC(C(N)c2cc(Cl)c(Cl)cc2O)CC1 (stereo not shown) [Compound 55, 2-[4-[amino(4,5-dichloro-2-hydroxyphenyl)methyl]piperidin-1-yl]-N,N-dimethylacetamide]"
21,< 10 µM,"NC(c1cc(Cl)c(Cl)cc1O)C1CCN(C(=O)NC2CC2)CC1 (stereo not shown) [Compound 57, 4-(amino(4,5-dichloro-2-hydroxyphenyl)methyl)-N-cyclopropylpiperidine-1-carboxamide]"
